Test results published in patent US8912236B2 (Alcon Research, Ltd., priority 2009, dated 2014).

System: FGFR
Test: Kinase inhibition, cell-free enzymatic assay
Assay type: biochemical
Conditions: 1 mM ATP

IC50: > 12.5 µM
Structure (SMILES): Cc1ccc(F)c(NC(=O)Nc2ccc(-c3cccc4[nH]nc(N)c34)cc2)c1 [RTK Inhibitor, N-[4-(3-amino-1H-indazol-4-yl)phenyl]-N′-(2-fluoro-5-methylphenyl) urea]
